According to patent US12540922B2, “Quantitative shotgun proteome, lipidome, and metabolome analysis by direct infusion” (Wisconsin Alumni Research Foundation, priority 2021, dated 2026):

These compounds were tested on 293T cells (wild type or PPTC7 knockout) (assay: MitoTox screen: DI-SPA proteome quantification of toxin-treated cells). Details: 6-hour compound treatments, DMEM or HPLM.
Assay type: cell-based, human
Description: Wild type or PPTC7 knockout (KO) cells were grown in either standard or modified media, DMEM or HPLM (Cantor et al., Cell, 169, 258-272.e17 (2017)), respectively, and treated in triplicate with one of nine mitochondrial toxins or two controls for a total 132 samples. These conditions were chosen because of their known effects on metabolism and mitochondria, which were hypothesized to induce changes in proteins and thus provide a suitable testbed for DI-SPA. Again, a peptide discovery experiment (like FIG. 7) was first performed to identify peptides for subsequent targeted quantification experiments, in which 1,384 peptides were identified (peptide-level FDR=0.93%) from 451 proteins (protein-level FDR=2.8%). Next, a quantitative targeted DI-SPA assay was generated to expeditiously monitor the most intense peptide from each of the 451 proteins. This method was used to analyze all 132 samples, generating 132 proteotypes and requiring only 120 seconds of MS data collection per sample. A total of 341 out of 451 protein targets were quantified across all 132 samples in only 4.4 hours of total MS data acquisition, which corresponds to over 45,000 proteins quantified at a rate of nearly three proteins per second (FIG. 4, panel B).
MitoTox Experiment—Cell Culture. 293T cells were purchased from ATCC (#CRL-3216) and maintained in DMEM (4.5 g/L glucose, 4 mM glutamine, no pyruvate—Thermo #11965092) supplemented with 10% fetal bovine serum (FBS) and 1× penicillin/streptomycin (100 U/mL final [c]). Human Plasma-Like Medium (HPLM) was supplemented with 10% dialyzed FBS (Thermo #26400036) and 1× penicillin/streptomycin (100 U/mL final [c]). For heavy labeling, 293T cells were labeled using the DMEM-based SILAC protein quantitation kit (Thermo #A33972). Briefly, cells were grown for at least 5 passages SILAC-compatible DMEM supplemented with 10% dialyzed FBS, ^13C ^15N2 L-lysine-2HCl and ^13C6 ^15N4 L-arginine HCl, and 1× penicillin/streptomycin. SILAC labeling was confirmed through mass spectrometry analysis and ratios of light/heavy cells were titrated based on analysis of median ratios observed in the controls. All cells were grown in a tissue culture grade incubator held at 37° C. supplemented with 5% CO2. Cells were verified as mycoplasma negative via the e-Myco Mycoplasma PCR Detection Kit (Bulldog Bio #25233).
MitoTox screen conditions. 293T or PPTC7 knockout 293T cells were split and plated in 24 well plates at 7.5×10^4 cells per well. Cells were allowed to adhere overnight, and media was replaced with fresh DMEM or HPLM for a total of 24 hours prior to collection of cells. Compound treatments were grouped into 6-hour or 24-hour incubations, with 6-hour compound treatments occurring in the last 6 hours of the 24-hour media change, and 24-hour compound treatments occurring for the entire 24 hours of media treatment. Compounds used for 6 hours include antimycin A (5 μM final [c], Sigma #A8674), rotenone (5 μM final [c], Sigma #R8875), oligomycin (2.5 μM final [c], Sigma #04876), CCCP (10 μM final [c], Sigma #C2759), valinomycin (1 μM final [c], Sigma #V0627) and CDDO (2.5 μM final [c], Cayman Chemical #11883)). Compounds used for 24 hours include doxycycline (10 μg/ml final [c], VWR #75844-668) and Deferoxamine (DFO, 100 μM final [c], Sigma #D9533). One compound, 4-nitrobenzoate (4-NB, 1 mM final [c], Sigma #461091), requires 6+ days for efficacy (Forsman et al., Nature Chemical Biology, 6, 515-517 (2010)), and thus cells were treated with this compound for 5 days before being split to 7.5×10^4 cells per well and grouped with the 24 hour incubations. Control, untreated 293T cells were split and harvested with both the 6-hour and 24-hour compound treatment sets. All conditions were plated and collected in 3 replicate wells. […]

| Compound | proteome perturbation (UMAP of proteotypes) in relation to 6 h controls |
| --- | --- |
| N#CC(C#N)=NNc1cccc(Cl)c1 [CCCP] | produced more (and comparable) proteome rearrangement |
| CC1(C)CC[C@]2(C(=O)O)CC[C@]3(C)[C@H](C(=O)C=C4[C@@]5(C)C=C(C#N)C(=O)C(C)(C)[C@@H]5CC[C@]43C)[C@@H]2C1 [CDDO] | media dependent |
| CC(C)[C@@H]1NC(=O)[C@H](C)OC(=O)[C@@H](C(C)C)NC(=O)[C@@H](C(C)C)OC(=O)[C@H](C(C)C)NC(=O)[C@H](C)OC(=O)[C@@H](C(C)C)NC(=O)[C@@H](C(C)C)OC(=O)[C@H](C(C)C)NC(=O)[C@H](C)OC(=O)[C@@H](C(C)C)NC(=O)[C@@H](C(C)C)OC1=O [Valinomycin, valinomycin] | induced the most profound proteome perturbation relative to controls |
| CC[C@H]1/C=C/C=C/C[C@@H](C)[C@H](O)[C@@](C)(O)C(=O)[C@@H](C)[C@H](O)[C@@H](C)C(=O)[C@@H](C)[C@H](O)[C@@H](C)/C=C/C(=O)O[C@@H]2[C@H](C)[C@H](CC1)O[C@]1(CC[C@H](C)[C@H](C[C@@H](C)O)O1)[C@H]2C [oligomycin] | produced more (and comparable) proteome rearrangement |
| C=C(C)[C@H]1Cc2c(ccc3c2O[C@@H]2COc4cc(OC)c(OC)cc4[C@@H]2C3=O)O1 [rotenone] | most similar |
| antimycin A | most similar |
